Measurements taken from patent publication US20090099167A1, “Organic compounds” (Novartis Institutes for Biomedical Research, priority 2004, published 2009).

Experiments:
human IGF-IR = target: T1, human IGF-IR (Homo sapiens, UniProt P08069); assay: IGF-1R tyrosine kinase assay, GST-IGF-1R; type: biochemical; conditions: Table 5; read-out: IGF-1R, IC50 class
T1 construct: expresses the amino acid region 950-1337 of the mature peptide cytoplasmic domain of the human IGF-IR; made in house; host or cells: baculovirus (Bac-to-Bac)
T1 sequence (P08069 980-1367): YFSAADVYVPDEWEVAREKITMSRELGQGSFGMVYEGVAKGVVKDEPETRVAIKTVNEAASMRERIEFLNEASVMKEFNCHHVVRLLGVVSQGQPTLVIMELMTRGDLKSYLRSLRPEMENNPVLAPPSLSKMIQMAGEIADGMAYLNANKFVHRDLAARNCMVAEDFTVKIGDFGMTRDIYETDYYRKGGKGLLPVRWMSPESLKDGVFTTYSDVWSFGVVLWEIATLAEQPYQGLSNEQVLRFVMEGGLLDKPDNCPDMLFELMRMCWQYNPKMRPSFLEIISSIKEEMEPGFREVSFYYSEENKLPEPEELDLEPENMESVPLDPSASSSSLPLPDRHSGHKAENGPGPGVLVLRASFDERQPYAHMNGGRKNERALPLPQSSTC
Source text: The inhibition of IGF-1R and Ins-R can be determined as follows: The baculovirus donor vector pfbgx3IGFIRcd is used to generate a recombinant baculovirus that expresses the amino acid region 950-1337 of the mature peptide cytoplasmic domain of the human IGF-IR. To generate the cDNA fragment encoding the amino acid region 919-1343 of the intra-cytoplasmic kinase domain of the human insulin receptor, pC5hInsR is used. The fragments of the human IGF-IR and Ins-R are cloned, expressed and small-scale purified as a factor Xa-cleavable glutathione-S-transferase (GST)-fusion protein using the Bac-to-Bac™ system (GIBCO BRL) of recombinant baculovirus generation. Virus containing media is collected from the transfected cell culture and used for infection to increase its titer. Virus containing media obtained after two rounds of infection is used for large-scale protein expression. Cell extracts are prepared and loaded onto a glutathione-Sepharose (Pharmacia) column. After washing, the GST-tagged proteins are then eluted with a glutathione-containing buffer. Purified protein is stored at −70° C. in elution buffer. Tyrosine protein kinase assays with purified GST-IGF-1R and GST-ins-R are carried in a final volume of 30 μl containing 20 mM Tris-HCl, pH 7.6, 10 mM MgCl2, 0.01 mM Na3VO4, 1% DMSO, 1 mM DTT, 3 μg/ml poly(Glu,Tyr) 4:1 and 10 μM ATP (γ-[^33P]-ATP 0.1 μCi). The assay is performed in 96-well plates at ambient temperature for 20 min and terminated by addition of 25 μl 0.05 M EDTA pH 7.0. An aliquot of 40 μl is spotted with a multichannel dispenser on Whatman P81 membranes mounted in a Millipore Microtiter filter manifold connected to a low vacuum source. After elimination of liquid, the membrane is transferred to a sequence of 4 washing baths containing 0.5% H3PO4 and one with EtOH (shaking incubation for 10 min each), dried, mounted onto a Hewlett Packard TopCount manifold added 10 μl Microscint® and counted. Compounds of formula (I) show up to 90% inhibition of Ins-R at 10,000 nM, preferably between 60-90% inhibition. The inhibition of Tek can be determined as follows: The procedure of the expression, purification and assay these kinases has been described. Fabbro et al., Pharmacol. Ther. 82(2-3) 293-301 (1999). In brief, the glutathione S-transferase (GST) gene from the pAcG1 vector (Pharmingen) is excised with EcoRV and EcoRI and inserted into the cloning site of the Fast-Bac baculoviral vector (GIBCO) creating a 5530 bp vector with N-terminal cloning sites derived from the pAcG1 fusion vector (FBG0). The C-terminal cloning site may be any cloning site (from the Fast-Bac vector) downstream of the N-terminal cloning site used. N-terminally GST-fused (pAcG1, Pharmingen) KDR, Flt-1, Flk-1, Tek and PDGFR-β kinase domains are obtained from ProQinase, Freiburg, Germany. Tek is recloned into the FBG1 vector by EcoRI excision and ligation into EcoRI digested FBG1 (FBG1-Tek). The coding sequences for the whole cytoplasmic domain of c-Kit (aa 544-976) and c-Fms (aa 538-972) are amplified by PCR from human uterus and from human bone marrow cDNA libraries (Clontech), respectively. The amplified DNA fragments are fused to GST by cloning them into FBG1 as BamHI-EcoRI insertions, to yield FBG1-c-Kit and FBG1-c-Fms. Tek is recloned into the FBG0 transfer vector by EcoRI excision and ligation into EcoRI digested FBG0 (FBG-Tie2/Tek). FGFR-1 and c-met kinase domains are obtained by PCR from human A431 cells. N-terminal primers contain an overhanging EcoRI site, while C-terminal primers contain a XhoI site to aid cloning into the transfer vectors. After digestion of both the PCR fragments and FBG0 the cleavage products are gel-purified and ligated together to form the kinase constructs (FBG-Met, FBG-FGFR-1).

Cdk1/cycB = Cdk1/cycB (UniProt P06493); assay: Cdk1/cycB kinase assay, histone H1 substrate; type: biochemical, starfish; conditions: Table 5; read-out: CDK1/B, IC50 class
Outline: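 Active Cdk1/cycB was purified from starfish oocytes arrested in M phase with 1-methyladenine, using p9CKShs-sepharose. Reactions ran 20 min at ambient temperature and were stopped with EDTA. Phosphorylated product was captured on Immobilon P membranes, washed in H3PO4 and EtOH, and counted by scintillation.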

Compound: COc1ccc(-c2cnn3c(N)c(-c4cccc(Cl)c4)c(C)nc23)cc1 [Example 88, 6-(3-Chloro-phenyl)-3-(4-methoxy-phenyl)-5-methyl-pyrazolo[1,5-a]pyrimidin-7-ylamine]
- IC50 (human IGF-IR): > 10 µM
- IC50 (Cdk1/cycB): > 10 µM

Compound: Cc1nc2c(-c3cccc(N4C[C@@H](C)O[C@@H](C)C4)c3)cnn2c(N)c1-c1cccc(Cl)c1 [Example 89, 6-(3-Chloro-phenyl)-3-[3-((2R,6S)-2,6-dimethyl-morpholin-4-yl)-phenyl]-5-methyl-pyrazolo[1,5-a]pyrimidin-7-ylamine]
- IC50 (human IGF-IR): > 10 µM
- IC50 (Cdk1/cycB): > 10 µM

Compound: Cc1nc2c(-c3cccc(N4CCN(CCO)CC4)c3)cnn2c(N)c1-c1cccc(Cl)c1 [Example 90, 2-(4-{3-[7-Amino-6-(3-chloro-phenyl)-5-methyl-pyrazolo[1,5-a]pyrimidin-3-yl]-phenyl}-piperazin-1-yl)-ethanol]
- IC50 (human IGF-IR): > 10 µM
- IC50 (Cdk1/cycB): > 10 µM

Compound: CN1CCN(c2cccc(-c3cnn4c(N)c(Cc5ccccc5)cnc34)c2)CC1 [Example 91, 6-Benzyl-3-[3-(4-methyl-piperazin-1-yl)-phenyl]-pyrazolo[1,5-a]pyrimidin-7-ylamine]
- IC50 (human IGF-IR): > 10 µM
- IC50 (Cdk1/cycB): > 10 µM

Compound: COc1ccc(-c2cnn3c(N)c(-c4cccc(Cl)c4)c(CF)nc23)cc1OC [Example 92, 6-(3-Chloro-phenyl)-3-(3,4-dimethoxy-phenyl)-5-fluoromethyl-pyrazolo[1,5-a]pyrimidin-7-ylamine]
- IC50 (human IGF-IR): > 10 µM
- IC50 (Cdk1/cycB): > 10 µM

Compound: COc1ccc(-c2cnn3c(N)c(-c4cccc(Cl)c4)c(C)nc23)cc1OC [Example 93, 6-(3-Chloro-phenyl)-3-(3,4-dimethoxy-phenyl)-5-methyl-pyrazolo[1,5-a]pyrimidin-7-ylamine]
- IC50 (human IGF-IR): > 10 µM
- IC50 (Cdk1/cycB): > 10 µM

Compound: COc1ccc(-c2cnn3c(N)c(-c4ccc(F)c(Cl)c4)c(C)nc23)cc1OC [Example 94, 6-(3-Chloro-4-fluoro-phenyl)-3-(3,4-dimethoxy-phenyl)-5-methyl-pyrazolo[1,5-a]pyrimidin-7-ylamine]
- IC50 (human IGF-IR): > 10 µM
- IC50 (Cdk1/cycB): > 10 µM

Compound: COc1ccc(-c2cnn3c(N)c(-c4ccc(F)c(Cl)c4)c(C)nc23)cc1 [Example 95, 6-(3-Chloro-4-fluoro-phenyl)-3-(4-methoxy-phenyl)-5-methyl-pyrazolo[1,5-a]pyrimidin-7-ylamine]
- IC50 (human IGF-IR): > 10 µM
- IC50 (Cdk1/cycB): > 10 µM

Compound: COc1ccc(-c2cnn3c(N)c(-c4ccc(F)cc4)c(C)nc23)cc1 [Example 96, 6-(4-Fluoro-phenyl)-3-(4-methoxy-phenyl)-5-methyl-pyrazolo[1,5-a]pyrimidin-7-ylamine]
- IC50 (human IGF-IR): > 10 µM
- IC50 (Cdk1/cycB): > 10 µM

Compound: Cc1nc2c(-c3cccc(N4CCN(CCO)CC4)c3)cnn2c(N)c1-c1ccc(F)cc1 [Example 97, 2-(4-{3-[7-Amino-6-(4-fluoro-phenyl)-5-methyl-pyrazolo[1,5-a]pyrimidin-3-yl]-phenyl}-piperazin-1-yl)-ethanol]
- IC50 (human IGF-IR): > 10 µM
- IC50 (Cdk1/cycB): > 10 µM

Compound: Cc1nc2c(-c3cccc(N4CCN(C)CC4)c3)cnn2c(N)c1-c1ccc(F)c(F)c1 [Example 98, 6-(3,4-Difluoro-phenyl)-5-methyl-3-[3-(4-methyl-piperazin-1-yl)-phenyl]-pyrazolo[1,5-a]pyrimidin-7-ylamine]
- IC50 (human IGF-IR): > 10 µM
- IC50 (Cdk1/cycB): > 10 µM

Compound: COc1ccc(-c2cnn3c(N)c(-c4ccc(F)c(F)c4)c(C)nc23)cc1OC [Example 99, 6-(3,4-Difluoro-phenyl)-3-(3,4-dimethoxy-phenyl)-5-methyl-pyrazolo[1,5-a]pyrimidin-7-ylamine]
- IC50 (human IGF-IR): > 10 µM
- IC50 (Cdk1/cycB): > 10 µM

Compound: Cc1nc2c(-c3cccc(N4CCN(CCO)CC4)c3)cnn2c(N)c1-c1ccc(F)c(Cl)c1 [Example 100, 2-(4-{3-[7-Amino-6-(3-chloro-4-fluoro-phenyl)-5-methyl-pyrazolo[1,5-a]pyrimidin-3-yl]-phenyl}-piperazin-1-yl)-ethanol]
- IC50 (human IGF-IR): > 10 µM
- IC50 (Cdk1/cycB): > 10 µM

Compound: Cc1nc2c(-c3cccc(N4CCN(CCO)CC4)c3)cnn2c(N)c1-c1ccc(F)c(F)c1 [Example 101, 2-(4-{3-[7-Amino-6-(3,4-difluoro-phenyl)-5-methyl-pyrazolo[1,5-a]pyrimidin-3-yl]-phenyl}-piperazin-1-yl)-ethanol]
- IC50 (human IGF-IR): > 10 µM
- IC50 (Cdk1/cycB): > 10 µM

Compound: Cc1nc2c(-c3cccc(N4CCC(N5CCCC5)CC4)c3)cnn2c(N)c1-c1cccc(Cl)c1 [Example 102, 6-(3-Chloro-phenyl)-5-methyl-3-[3-(4-pyrrolidin-1-yl-piperidin-1-yl)-phenyl]-pyrazolo[1,5-a]pyrimidin-7-ylamine]
- IC50 (human IGF-IR): > 10 µM
- IC50 (Cdk1/cycB): > 10 µM

Compound: Cc1nc2c(-c3cccc(N4CCC(N5CCCC5)CC4)c3)cnn2c(N)c1-c1ccc(F)cc1 [Example 103, 6-(4-Fluoro-phenyl)-5-methyl-3-[3-(4-pyrrolidin-1-yl-piperidin-1-yl)-phenyl]-pyrazolo[1,5-a]pyrimidin-7-ylamine]
- IC50 (human IGF-IR): > 10 µM
- IC50 (Cdk1/cycB): > 10 µM

Compound: Cc1nc2c(-c3cccc(N4CC[N+](C)([O-])CC4)c3)cnn2c(N)c1-c1ccc(F)cc1 [Example 106, 6-(4-Fluoro-phenyl)-5-methyl-3-[3-(4-methyl-4-oxy-piperazin-1-yl)-phenyl]-pyrazolo[1,5-a]pyrimidin-7-ylamine]
- IC50 (human IGF-IR): > 10 µM
- IC50 (Cdk1/cycB): > 10 µM

Compound: Cc1nc2c(-c3cccc([N+]4([O-])CC[N+](C)([O-])CC4)c3)cnn2c(N)c1-c1ccc(F)cc1 (stereo not drawn) [Example 107, 6-(4-Fluoro-phenyl)-5-methyl-3-[3-(4-methyl-1,4-dioxy-piperazin-1-yl)-phenyl]-pyrazolo[1,5-a]pyrimidin-7-ylamine]
- IC50 (human IGF-IR): > 10 µM
- IC50 (Cdk1/cycB): > 10 µM
